Series [1] concerns C57BL6/J mice. In words: High fat diet induced body weight gain, food and water intake in mice. In kind it is in vivo. As to conditions: WT C57BL6 mice on HFD, 0.2 mM in drinking water. The protocol: CD and HFD were purchased from Purina LabDiet (Framingham, Mass.), and Research Diets (New Brunswick, N.J.), respectively. PGT global knockout (KO) mice were fed with HFD at 5-6 weeks of age. Simultaneously, WT-CD, WT-HFD, and PGTKO-HFD mice were treated with vehicle (0.4% DMSO+0.4% cremophore) or 0.2 mM Compound 146 from Table 1. To prepare Compound 146 solution, Compound 146 was dissolved in 100% DMSO at a concentration of 50 mM. Two mL of either DMSO or 50 mM Compound 146 were transferred into 500 mL drinking water; 2 mL cremophore were added into the mixture. The mixture was homogenous. Mice were housed individually and fed with CD or HFD, and water (with or without Compound 146) ad libitum. Food and water intakes and body weight were recorded every other day.

Series [2] relates to C57BL6/J mice. In words: Glucose tolerance test in HFD-fed mice. Particulars: mice on HFD, 0.2 mM in drinking water for 67 days; glucose 2 g/kg i.p. after 12 h fast. Type of series: in vivo. The protocol:
Glucose intolerance is often associated with obesity and HFD causes glucose intolerance. Mice were fasted for 12 hours. Glucose was injected intraperitoneally (20% glucose in saline, 2 g/kg body weight), and plasma glucose levels were measured at various time points by tail cut.

For series [3], the system named is Sprague-Dawley rats. In words: Tolerability with twice daily injections in the naive rodent. Type of series: in vivo. Particulars: 7 days. The procedure:
In the first arm of the project, the tolerability of compounds was assessed with twice daily (b.i.d) injections in the naive rodent. Following one week of acclimatization to the UNM housing environments, rats at this time weighing approximately 200-225 g were randomly assigned to either receive a 50 mg/kg injection b.i.d. of Compound 146 (n=4) or an equivalent weight-based volume of vehicle (Cremophor-NMP) b.i.d. (n=4). Rats received test article or saline for a total of 7 consecutive days. Blood draws were conducted immediately before the 2nd day of injections, before the 4th day, before the 6th day, and at sacrifice. Body weights were obtained at the same times as the blood draws. On the 7th day, blood from both cohorts was collected via cardiac puncture while under anesthesia. Lungs, heart, liver and kidney were collected and snap frozen in liquid nitrogen for post-mortem bioassays.

In series [4] the test system is Sprague-Dawley rats. The series is described as follows: Rat monocrotaline (MCT) model of pulmonary arterial hypertension. As to conditions: for Deaths/Total N: 21 days. Type of series: in vivo. The protocol:
Monocrotaline (MCT) (Sigma-Aldrich) was formulated by standardized procedures, by first dissolving in an acidic solution (HCl), diluting with distilled H2O, then raising the pH to physiological levels (7.35-7.45) with NaOH. MCT (60 mg/kg) or a volume-matched saline solution was injected intraperitoneally once at the beginning of the study. Body weights were collected on day 0, 5, 7, 11, 14, 18, and 21.
MCT and saline-injected rats (Day 1) were equally and randomly assigned to receive either vehicle (Cremophor-NMP), low dose Compound 146 or high dose Compound 146 via subcutaneous injections (Days 1-21). Injections were administered subcutaneously at 12 hour intervals throughout the study (actual range was 10-14 h).
After 21 days of twice daily subq injections of either vehicle or two concentrations of Compound 146, rats were anesthetized (1.5-2.5% isoflurane; […]), shaved and positioned in dorsal recumbence. Anesthesia was maintained at an appropriate depth, with a target heart rate of ˜350 bpm to ensure minimal cardio-depressant effects during collection of RVSP.
Upon absent deep pain reflex, a thoracotomy was performed to reveal the right ventricle and a fluid-filled catheter was inserted beyond the right ventricular free wall to permit recording of right ventricular hemodynamics (ADI Instruments). A digital trace of 10-30 seconds was obtained from which to derive right ventricular diastolic, mean, and systolic pressures, along with heart rate and related hemodynamic measures. Blood was then drawn via cardiac puncture and centrifuged to obtain EDTA plasma. Hearts were removed and the right ventricle dissected free from the septal wall. Each piece was weighed and reported as RV/LV+S. Tissues (plasma, heart, and lung) were excised and frozen in liquid nitrogen for later biochemical analysis. Additionally, kidneys and liver were snap frozen and stored for subsequent analysis.
Animals were examined twice per day (morning and evening) on each day of the study. Examinations focused on (1) identifying dead, weak, or moribund animals, and (2) documenting the onset and progression of any abnormal clinical signs, especially dermal lesions. Animals found dead were necropsied as soon as possible; for those subjects RV/LVS weight ratios were obtained, but no other parameters were collected.
All data were analyzed by a one-way ANOVA with Newman-Keuls post-hoc multiple comparison test. Probability values less than 0.05 were accepted as significant. Normality of distribution was assumed but for all data sets. All data were analyzed with GraphPad Prism v5.02.

Another series concerns the target T1, rat PGT (Rattus norvegicus, UniProt Q00910).
T1 construct: expressed in transfected cells
Particulars: cited from earlier work.

The text below walks through data of patent US9603852B2, “Treatment of obesity and pulmonary arterial hypertension” (ALBERT EINSTEIN COLLEGE OF MEDICINE, INC., priority 2013, dated 2017).

Each structure is given as a SMILES string.

With `O=C(NCCOCCOCCNc1nc(Nc2ccc(C(=O)NCc3ccc(F)cc3)cc2)nc(Nc2ccc(O)c(C(=O)O)c2)n1)c1ccccc1` [Compound 146], the “HFD induced body weight gain” value in the series on C57BL6/J mice [1] is given as “blunted HFD induced weight gain”. Besides, the “HFD induced glucose intolerance (glucose tolerance test)” value in the series on C57BL6/J mice [2] is recorded as “improved HFD induced glucose intolerance”. Besides, the “cutaneous lesion diameter close to injection sites” value in the series on Sprague-Dawley rats [3] (2 rats of the 50 mg/kg b.i.d. group that did not gain weight) is reported as 1.5-2.0 cm. For the same compound, the “body weight growth (tolerability)” value in the series with Sprague-Dawley rats [3] (naive rats, 50 mg/kg b.i.d. injection in NMP and Cremophor) is listed as “heterogeneous failure to thrive”. Moreover, the “RV pressures, MCT+Vehicle versus MCT+Compound 146 by ANOVA” value in the series on Sprague-Dawley rats [4] (15 or 50 mg/kg b.i.d.) is recorded as “not statistically different”. For the same compound, the “RV pulse pressure, MCT+Vehicle versus MCT+Compound 146 by ANOVA” value with Sprague-Dawley rats [4] (15 or 50 mg/kg b.i.d.) was “statistically different”. For the same compound, the “Net RV weight increase by MCT” value in the series on Sprague-Dawley rats [4] (MCT rats) is listed as “effect blunted”. Moreover, the “Deaths/Total N” value in the series on Sprague-Dawley rats [4] (MCT rats, 15 mg/kg b.i.d. s.c.) was 0/8; in the series on Sprague-Dawley rats [4] (MCT rats, 50 mg/kg b.i.d. s.c.), 0/8; with Sprague-Dawley rats [4] (Saline-injected rats, 50 mg/kg b.i.d. s.c.), 0/5. The “MCT induced increase in total lung weight” value in the series with Sprague-Dawley rats [4] (MCT rats, both doses) is “inhibited”. Further, in the series with Sprague-Dawley rats [4] (MCT rats, both doses), the RV hypertrophic response entry is on record as “significant inhibition”. In addition, the “RV/LVS ratio (Fulton Index), mean” value turned out to be 0.47 with Sprague-Dawley rats [4] (MCT rats, high dose 50 mg/kg b.i.d.) and 0.41 in the series with Sprague-Dawley rats [4] (MCT rats, low dose 15 mg/kg b.i.d.). In addition, the “right lobe dry weight / increase in structural components of the lung” value in the series on Sprague-Dawley rats [4] (MCT rats, lobe dried for 5 days) was “abrogated this remodeling”. In addition, the “RV pulse pressure, MCT effect compared to control rats” value in the series with Sprague-Dawley rats [4] (either dose (15 or 50 mg/kg b.i.d.)) is listed as “MCT induced no significant effect compared to control rats”. Also, the “RV systolic and mean pressures, MCT effect compared to control rats” value in the series with Sprague-Dawley rats [4] (either dose (15 or 50 mg/kg b.i.d.), ANOVA) is “MCT induced no significant effect compared to control rats”. For the same compound, in the series with Sprague-Dawley rats [4] (groups receiving any dose), the lethalities result is recorded as “no lethalities”. Besides, the “RV pressures, MCT-vehicle compared to MCT-Compound 146, restricted analysis” value in the series with Sprague-Dawley rats [4] (one-tailed unpaired Student's t-test, P=0.046 low dose and 0.002 high dose) is “significant reduction”. The “Inh (% of Ctl) 0.01 μM” value at rat PGT (0.01 μM compound, second part of Table 1) is 28.5 % of Ctl. Further, at rat PGT (0.05 μM compound, second part of Table 1), the “Inh (% of Ctl) 0.05 μM” value is listed as 59.8 % of Ctl. Besides, at rat PGT (0.1 μM compound, second part of Table 1 (Cpd 130-151)), the “Inh (% of Ctl) 0.1 μM” value is on record as 70.4 % of Ctl.
